{
  "source": "patent US8772509B2",
  "about": "“Indole compounds as positive allosteric modulators of the muscarinic receptor” (Vanderbilt University, priority 2010, dated 2014)",
  "target": "T1, mAChR M1 (UniProt P08482)",
  "T1 sequence (P08482 1-460)": "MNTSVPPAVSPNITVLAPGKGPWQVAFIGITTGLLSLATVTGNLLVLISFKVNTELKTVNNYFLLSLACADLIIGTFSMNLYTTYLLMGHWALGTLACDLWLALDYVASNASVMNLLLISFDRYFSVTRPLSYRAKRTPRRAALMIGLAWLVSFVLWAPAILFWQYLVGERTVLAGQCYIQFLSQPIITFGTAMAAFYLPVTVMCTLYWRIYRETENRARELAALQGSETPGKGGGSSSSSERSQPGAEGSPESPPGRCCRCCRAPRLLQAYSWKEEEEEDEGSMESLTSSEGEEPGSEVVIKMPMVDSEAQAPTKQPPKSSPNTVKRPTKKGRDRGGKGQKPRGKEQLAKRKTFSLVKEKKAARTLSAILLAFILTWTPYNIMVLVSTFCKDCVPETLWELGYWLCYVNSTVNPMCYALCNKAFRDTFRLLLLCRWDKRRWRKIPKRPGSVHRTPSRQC",
  "test": "mAChR M1 cell-based functional assay (calcium mobilization, Fluo-4, FDSS)",
  "conditions": "positive allosteric modulation of EC20 acetylcholine response, CHO-K1 cells expressing mAChR M1; read-out: Potency (EC50)",
  "data": [
    {"smiles": "Cc1cc(NC(=O)C(Cc2ccc(OC(F)(F)F)cc2)S(=O)(=O)c2cn(Cc3ccc(OC(F)(F)F)cc3)c3ccccc23)no1", "note": "(stereo not shown) [compound 74, N-(5-methyl-1,2-oxazol-3-yl)-3-[4-(trifluoromethoxy)phenyl]-2-(1-{[4-(trifluoromethoxy)phenyl]methyl}-1H-indole-3-sulfonyl)propanamide]", "values": [
      {"measurement": "EC50", "result": "> 10", "unit": "µM"}
    ]}
  ]
}
